From US20230285556A1, “METHODS AND COMPOSITIONS FOR TREATING CANCER” (Omeros Corporation, priority 2021, published 2023)
Where “and” joins values, the source holds several entries; their conditions need not be identical. Equal entries are not always repeated. Each block holds one compound with its values, some of them ahead of it.

Columns and labels:
GPR174 [1] = biological target: T1, GPR174 (Homo sapiens, UniProt Q9BXC1); test: Human GPR174 CRE activity / Gs signaling; assay type: cell-based
Description: (§1) Where present, multiple EC50 values correspond to values obtained in separate experiments. […] The activity of the compounds was tested as described in US 20200276190, the disclosure of which is incorporated herein by reference.

human CD8 T cells [2] = test: Example 5: human CD8 T cell expansion with cAMP pathway and p38 inhibitors, IL-2 after restimulation; assay type: cell-based; conditions: 500 μM Rp-8-Br-cAMPS, 0.5 μM doramapimod; for IL-2 production following restimulation, fold above vehicle control (FIG. 8): 10 μM HJC-0197, 5 μM ESI-09
Description: (§2) DMSO vehicle control • 2. […] 500 μM Rp-8-Br-cAMPS • 4. […] 0.5 μM doramapimod • 6. Media control
(§3) or the following individual conditions for the experiment shown in FIG. 8, each ±0.5 μM doramapimod: • 1. DMSO vehicle control • 2. 500 μM Rp-8-Br-cAMPS • 3. […] 5 μM ESI-09
(§4) On days 3, 5, and 7, cultures were washed and seeded at 0.5 cells million per well with the same small molecule inhibitor conditions, and with IL-7 and IL-15. On day 10, cells were washed twice (12 mL media each), and restimulated in quadruplicate in 96-well round-bottom plates with the following conditions: • 0.1 mL X-VIVO™ 15 media (Lonza) • 0.05 million cells from each condition • 0.1 million Human T-Activator CD3/CD28 Dynabeads® (ThermoFisher)
(§5) After overnight culture, supernatants were harvested and analyzed for IL-2 content (MesoScale Discovery).

GPR174 [3] = biological target: T1, GPR174; test: CRA (EC50) of GPR174 inhibitor compounds, tested as described in US 20200276190; assay type: cell-based; conditions: multiple values = separate experiments
Description: as §1

[4] = system: OT-I TCR transgenic CD8 T cells; test: Example 8: OT-I CD8 T cell 9-day expansion with PKA, p38, PI3Kδ inhibitors, IL-2 after restimulation with EG7 cells; assay type: cell-based, mouse
Description: DMSO vehicle control • 2. 0.5 μM doramapimod • 3. 500 μM Rp-8-Br-cAMPS • 4. 0.5 μM doramapimod+500 μM Rp-8-Br-cAMPS • 5. 1 μM idelalisib • 6. 1 μM idelalisib+0.5 μM doramapimod • 7. 1 μM idelalisib+500 μM Rp-8-Br-cAMPS • 8. 1 μM idelalisib+0.5 μM doramapimod+500 μM Rp-8-Br-cAMPS
On days 2, 4, 6, and 8, cells were counted, washed and reseeded at 0.5 million per well in 2 mL media with the same 8 conditions and with recombinant mouse IL-2 and IL-7 (5 ng/mL each). […] Cells were also washed three times (12 mL media each), and restimulated in quintuplicate in 96-well round-bottom plates with the following conditions: • 0.1 mL RP10 media • 0.05 million OT-I T cells from each condition • 0.05 million EG7 cells
as §5

human CD8 T cells [5] = test: Example 5: T cell number increase during 10-day expansion; assay type: cell-based
Description: as §2, §3, §4

[6] = system: OT-I TCR transgenic CD8 T cells; test: Example 6: OT-I CD8 T cell expansion with PKA and p38 inhibitors, IL-2 after restimulation with EG7 cells; assay type: cell-based, mouse; conditions: 0.2 μM doramapimod, 500 μM Rp-8-Br-cAMPS
Description: (§6) and the following individual conditions: • 1. DMSO vehicle control • 2. 0.2 μM doramapimod • 3. 500 μM Rp-8-Br-cAMPS • 4. 0.2 μM doramapimod+500 μM Rp-8-Br-cAMPS
On day 8, cells were immunophenotyped with the following antibodies: anti-CD8 BV570, anti-CD62L eFluor450, anti-TCF1/TCF7 PE, anti-CD39 PerCP-eFluor710, anti-CD69 BV605, anti-PD-1 BV711, anti-CTLA-4 APC, and LIVE/DEAD™ Fixable Green Dead Cell Stain.
as §5

EG7 tumors = test: Example 7: adoptive transfer of inhibitor-precultured OT-1 T cells into EG7 tumor-bearing mice; assay type: in vivo, mouse
Description: as §6
On day 6 cells were seeded in 6-well plates with […] per well, and on day 8 cells were seeded in T75 flasks in 30 mL media to obtain enough cells to transfer into EG7 tumor-bearing mice.
C57BL/6 female mice were implanted with 6 million EG7 tumor cells subcutaneously on day 4 of the OT-1 T cell expansion. On day 6 of tumor growth (day 10 of OT-1 T cell expansion) OT-1 T cells were washed and injected retro-orbitally into tumor bearing mice that had been sorted into 4 groups with equal tumor volume distributions (n=8). Via retroorbital injection, mice received 2 million OT1 T cells of each of the 4 culture conditions. Tumor volume (mm^3) was calculated as 0.5×(length×width^2), where length represents the largest tumor diameter and width represents the perpendicular tumor diameter. Mice were euthanized when the sum of the two measurements exceeded 30 mm.

human CD8 T cells [7] = test: Example 4: human CD8 T cell expansion with GPR174, A2A, PKA or EPAC inhibitors, IL-2 after restimulation; assay type: cell-based; conditions: 300 nM Compound #10, 100 nM ZM-241385, 500 μM Rp-8-Br-cAMPS, 5 μM ESI-09; 5.5 hours restimulation
Description: Purified human CD8 T cells were cultured in 24-well plates with the following conditions per well: • 2 mL X-VIVO™ 15 media (Lonza) • 0.4 million human CD8 T cells (Donor A) • 2 million Human T-Activator CD3/CD28 Dynabeads® (ThermoFisher) • 10 ng/mL human IL-7 (R&D Systems) • 10 ng/mL human IL-15 (R&D Systems)
and the following individual conditions, ±300 nM Compound #10: • 1. DMSO vehicle control • 2. […] 500 μM Rp-8-Br-cAMPS • 4. 5 μM ESI-09
On days 3, 5, and 7, cultures were washed and seeded at 0.5 cells million per well with the same small molecule inhibitor conditions, and with IL-7 and IL-15.
After 5.5 hours of culture, supernatants were harvested and analyzed for IL-2 content (MesoScale Discovery).

[8] = system: OT-I TCR transgenic CD8 T cells; test: Example 6: immunophenotyping of OT-I T cells on day 8; assay type: cell-based, mouse; conditions: 8 days of culture
Description: as §6
On days 2, 4, 6, and 8, cells were counted, washed, and reseeded at 0.5 million per well in 2 mL media with the same 4 doramapimod/Rp-8-Br-cAMPS conditions and with recombinant mouse IL-2 and IL-7 (5 ng/mL each). On day 8, cells were immunophenotyped with the following antibodies: anti-CD8 BV570, anti-CD62L eFluor450, anti-TCF1/TCF7 PE, anti-CD39 PerCP-eFluor710, anti-CD69 BV605, anti-PD-1 BV711, anti-CTLA-4 APC, and LIVE/DEAD™ Fixable Green Dead Cell Stain.

T1 sequence (Q9BXC1 whole entry): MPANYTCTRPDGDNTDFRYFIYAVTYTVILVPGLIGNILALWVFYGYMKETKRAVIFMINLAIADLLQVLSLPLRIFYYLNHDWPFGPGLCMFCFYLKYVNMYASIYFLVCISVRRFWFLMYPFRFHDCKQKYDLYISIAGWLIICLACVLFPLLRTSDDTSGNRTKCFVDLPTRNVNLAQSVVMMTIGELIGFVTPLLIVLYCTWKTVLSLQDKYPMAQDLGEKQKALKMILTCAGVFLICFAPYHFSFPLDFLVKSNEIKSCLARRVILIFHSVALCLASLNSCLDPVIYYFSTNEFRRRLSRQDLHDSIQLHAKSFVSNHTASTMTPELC

Human GPR174 CRE Activity (type of modulation) (GPR174 [1]): Antagonist or allosteric modulator
SMILES: Cc1ccc(-c2nnc(Nc3ccccc3)c3ccccc23)cc1S(N)(=O)=O [Compound 19]

EC50 (GPR174 [3]): 2.9 µM
SMILES: CCOc1ccc(C2C3=C(CCCC3=O)NC3=C2C(=O)c2ccccc23)cc1 (centres unmarked) [Compound 23]

Human GPR174 CRE Activity (type of modulation) (GPR174 [1]): Antagonist | EC50 (GPR174 [3]): 0.2 µM
SMILES: CCCC(=O)c1ccc(N2CCN(S(=O)(=O)c3ccc(C)cc3)CC2)c(F)c1 [Compound 4]
competition with the GPR174 agonist LysoPS (GPR174 [1]): found to compete with the GPR174 agonist LysoPS

Second part, the compound before the results:

SMILES: Cc1ccc(C)c(CSc2nc(C3CCCC3)c(C#N)c(=O)[nH]2)c1 [HJC-0197]
IL-2 production following restimulation, fold above vehicle control (FIG. 8) (human CD8 T cells [2]): absent or negligible

SMILES: O=C(N/N=C/c1cc(Cl)ccc1O)c1ccncc1 [Compound 57]
Human GPR174 CRE Activity (type of modulation) (GPR174 [1]): Antagonist or allosteric modulator

SMILES: S=C(NCc1ccco1)Nc1ccc(I)cc1 [Compound 59]
Human GPR174 CRE Activity (type of modulation) (GPR174 [1]): NM (“NM” refers to “non-modulator.”)

SMILES: Nc1ncnc2c1nc(Br)n2[C@@H]1O[C@@H]2COP([O-])(=S)O[C@H]2[C@H]1O.[Na+] (single isomer, unassigned) [Rp-8-Br-cAMPS, 8-Br-cAMPS, Rp-isomer]
Fold-change in IL-2 production relative to Vehicle control ([4]; Idelalisib (agent together with 1 μM idelalisib)): 89.9 | Fold-change in IL-2 production relative to Vehicle control ([4]; column Vehicle (without idelalisib), 0.5 μM doramapimod, 500 μM Rp-8-Br-cAMPS): 1.6 | T cell growth during the 10-day culture relative to vehicle-treated cells (FIG. 8) (human CD8 T cells [5]): ~2 fold | fold-increase in T cell number during the 10-day expansion (FIG. 7) (human CD8 T cells [5]; vehicle and media controls approximately 50-fold): 170 fold | IL-2 production from 8-day OT-I cultures, fold vs vehicle control ([6]; day 8 restimulation with EG7 cells): 5.3 fold | IL-2 production from 10-day OT-I cultures, fold over vehicle control ([6]; day 10 restimulation with EG7 cells): 18 fold | tumor growth / tumor volume after transfer of precultured OT-1 T cells (EG7 tumors; 2 million OT-1 T cells expanded 10 days with 0.2 μM doramapimod and/or 500 μM Rp-8-Br-cAMPS, retro-orbital, relative to vehicle control cells): significantly halted and delayed tumor growth | survival of tumor-bearing mice (EG7 tumors; OT-1 T cells precultured with inhibitor(s), relative to vehicle group): intermediate survival times | IL-2 production following restimulation, fold increase vs vehicle (FIG. 6) (human CD8 T cells [7]): 3.7 fold | downregulation of CTLA-4 [8]: particularly effective at downregulating CTLA-4 | increase in cells expressing both CD62L and TCF1/TCF7 relative to vehicle control [8]: smaller increases | percentage of OT-I T cells expressing both CD39 and CD69 ([8]; vehicle 22%): smaller reductions | IL-2 production following restimulation, fold above vehicle control (FIG. 8) (human CD8 T cells [2]): 2 fold | IL-2 production following restimulation, fold vs vehicle (FIG. 7) (human CD8 T cells [2]; GPR174+A2A inhibitors, overnight restimulation): 3.6 fold

SMILES: CC(=O)N1CCN(c2cc(N3CCCCC3)c(F)cc2[N+](=O)[O-])CC1 [Compound 2]
EC50 (GPR174 [3]): 3.3 µM and 3 µM and 5.1 µM

SMILES: CC(C)(C)c1cc(C(=O)/C(C#N)=N/Nc2cccc(Cl)c2)no1 [ESI-09]
T cell growth during the 10-day culture relative to vehicle-treated cells (FIG. 8) (human CD8 T cells [5]): attenuated T cell expansion | IL-2 production following restimulation, fold increase vs vehicle (FIG. 6) (human CD8 T cells [7]): no impact on IL-2 production | IL-2 production following restimulation, fold above vehicle control (FIG. 8) (human CD8 T cells [2]): absent or negligible
